Assays:
[1] = test system: Klebsiella pneumoniae; experiment: paper disc-plate method, combination with SF-1130-x1 substance; assay type: cell-based; conditions: in combination with SF-1130-x1, Klebsiella pneumoniae
[2] = test system: test microorganism; experiment: paper disc-plate method, test microorganisms in general; assay type: cell-based; conditions: for effect on antibacterial activity of the SF-1130-x2 substance: 1.25 mg/cc in upper plate layer, with SF-1130-x2; for antibacterial activity in themselves: alone, under the Table 4 testing conditions; for effect on antibacterial activity of the SF-1130-x1 substance: in combination with SF-1130-x1; for effect on antibacterial activity of the SF-1130-x substance: with SF-1130-x substance
Procedure: The test was conducted by a conventional paper disc-plate method. Thus, the SF-1130-x2 substance was dissolved in distilled water at a concentration of 1 mg/cc or 2 mg/cc, and with the test solutions so prepared were impregnated paper discs made of filter paper 8 mm in diameter which were subsequently air-dried. These paper discs were placed on an upper plate layer of the known mycin-assay incubation medium comprising 0.5% peptone, 0.3% meat extract and 1.5% agar (pH 6) which contained the test microorganism to be incubated therein and which was laid over the lower layer of agar medium in the assaying dish. The incubation was made at a temperature of 37° C. overnight, and subsequently the diameters of the inhibition zones formed around the paper discs were measured. These tests were repeated in the same manner as above but with the additional incorporation of 1.25 mg/cc of maltopentaose or maltohexaose into the upper plate layer of the micin-assay incubation medium. […] Control testing was also conducted in which the antibacterial potency of the SF-1130-x2 substance alone was estimated in the absence of maltopentaose or maltohexaose.

[3] = in vitro antimicrobial / antibacterial activity (general statement); assay type: cell-based; conditions: for in vitro antimicrobial activity: in themselves
[4] = test system: mice infected with ascites tumor of "Sarcoma 180"; experiment: cellular immunity test according to the delayed skin reaction technique; assay type: in vivo, ICR-JCL mice (male); conditions: for adjuvant effect on immuno-potentiating activity of SF-1130-x substance: with SF-1130-x substance
Procedure: The test was carried out by the following procedure: A group of ICR-JCL mice (male) having an average body weight of 31.58±4g (8 weeks old) (six mice per group) were inoculated with ascites tumor of "Sarcoma 180". 24 hours after the inoculation of the tumor cells, each of the drug samples to be tested was subcutaneously administered once into the mice. Two days after the inoculation an ethanolic solution of 5% picryl chloride was applied to the hair-shaved abdomens of mice to establish the sensitization. Subsequently, each drug sample under test was subcutaneously administered once a day for four successive days. Nine days after the inoculation, a solution of 1% picryl chloride in olive oil was applied to the two sides of both ears of mice to establish the secondary sensitization. 24 hours after the secondary sensitization, the degree (%) of increase in thickness of the ears was evaluated for the test mice. The extent of the delayed skin reaction can be assessed from the percentage increase.

[5] = test system: Staphylococcus aureus Smith S-424; experiment: host-defense stimulation in JCL-ICR mice against bacterial infection (survival, LD50 of bacteria); assay type: in vivo; conditions: living animals
Procedure: The test was conducted as follows: The crude, yellowish brown powder obtained in Example 1 was reprecipitated from water-ethanol and the reprecipitate was dissolved in a phosphate-buffered saline at ph 7.2. The resultant solution containing a mixture of maltopentaose and maltohexaose was intraperitoneally administered into a group of JCL-ICR mice (male) having an average body weight of 20g (4 weeks old) (eight mice per group) at a dosage of 100 mg/kg body or 20 mg/kg body. The administration was effected three times at an interval of 48 hours.
72 hours after the final administration, the mice were intraperitoneally inoculated with 0.5 ml/mouse of a cell dispersion of Staphylococcus aureus Smith S-424 strain which had been prepared by dilution of the incubated culture with physiological saline solution followed by addition of 5% mucin. The number of the mice that survived was counted during five days after the inoculation and the LD50 value of the bacterial cells (the number of the bacterial cells necessary to kill 50% of mice) calculated in each case. Control testing was also conducted where the treatment with the mixture of maltopentaose and maltohexaose was omitted.

[6] = solubility; assay type: physicochemical

Structure (SMILES)	effect on antibacterial activity of the SF-1130-x1 substance [1]	effect on antibacterial activity of the SF-1130-x2 substance [2]	antibacterial activity in themselves [2]	effect on antibacterial activity of the SF-1130-x1 substance [2]	effect on antibacterial activity of the SF-1130-x substance [2]	in vitro antibacterial activity [3]	in vitro antimicrobial activity [3]	Degree of increase in thickness (ears) ([4]; 200 mg/kg body, subcutaneous)	Percentage increase ([4]; 200 mg/kg body, subcutaneous, Control = 100.0) [%]	adjuvant effect on immuno-potentiating activity of SF-1130-x substance [4]	effect on host-defense system against bacterial infection [5]	solubility in acetone [6]	solubility in ethanol [6]	solubility in water [6]
OC[C@H]1O[C@H](O[C@H]2[C@H](O)[C@@H](O)[C@@H](O[C@H]3[C@H](O)[C@@H](O)[C@@H](O[C@H]4[C@H](O)[C@@H](O)[C@@H](O[C@H]5[C@H](O)[C@@H](O)[C@@H](O[C@H]6[C@H](O)[C@@H](O)C(O)O[C@@H]6CO)O[C@@H]5CO)O[C@@H]4CO)O[C@@H]3CO)O[C@@H]2CO)[C@H](O)[C@@H](O)[C@@H]1O (some centres unmarked) [maltohexaose]	improvement in the antibacterial activity is not observed	improves the antibacterial activity	no antibacterial activity	generally improves the antibacterial activity	improving the antibacterial activity	no in vitro antibacterial activity	no in vitro antimicrobial activity	4.7 ± 0.988 ×10^ -3 cm	87.0	adjuvant effect of increasing the immuno-potentiating activity	may stimulate the host-defense system	insoluble	insoluble	readily soluble
OC[C@H]1O[C@H](O[C@H]2[C@H](O)[C@@H](O)[C@@H](O[C@H]3[C@H](O)[C@@H](O)[C@@H](O[C@H]4[C@H](O)[C@@H](O)[C@@H](O[C@H]5[C@H](O)[C@@H](O)C(O)O[C@@H]5CO)O[C@@H]4CO)O[C@@H]3CO)O[C@@H]2CO)[C@H](O)[C@@H](O)[C@@H]1O (some centres unmarked) [maltopentaose]	improvement in the antibacterial activity is not observed	improves the antibacterial activity	no antibacterial activity	generally improves the antibacterial activity	improving the antibacterial activity	no in vitro antibacterial activity	no in vitro antimicrobial activity			adjuvant effect of increasing the immuno-potentiating activity	may stimulate the host-defense system	insoluble	insoluble	readily soluble

Reference: patent US4151041A, “Process for production of maltopentaose and maltohexaose” (Meiji Seika Kaisha, Ltd., priority 1976, dated 1979)
